Test [1] concerns SH-SY5Y cells. The test can be described thus: 1H NMR metabolic profiling of culture medium (consumption/excretion). Format: cell-based, human. The conditions noted are these: vs control. The protocol:
Afterward, the medium was collected and the dishes washed with cold PBS, immediately before the solvent extraction procedure described below. Unexposed cells were used as controls. Each assay comprised duplicates of each condition and three independent assays were performed, giving a total of 6 replicates per condition.
The culture medium was collected from each plate (including cell-free medium incubated under the same conditions) in conical tubes and centrifuged at 1000× g for 10 min. Furthermore, 300 µL of the supernatant were collected for protein precipitation, as described by Kostidis et al.. Briefly, 600 µL of 100% methanol (v/v) at −80 °C were added to the collected supernatant ([…]). […] The supernatant was transferred to another tube and vacuum dried (SpeedVac, Eppendorf, Hamburg, Germany). For extracting cellular metabolites, a biphasic extraction protocol (methanol:chloroform:water; 1:1:0.7) was used as previously described. The resulting polar extracts were dried under vacuum in a Speedvac concentrator, and the lipophilic extracts were dried under a nitrogen flow. All extracts were stored at −80 °C prior to NMR analysis.
For NMR analysis, dried aqueous and lipid extracts were dissolved, respectively, in 600 μL of deuterated phosphate buffer (PBS 100 mM, pH 7.4) containing 0.1 mM 3-(trimethylsilyl) propionic acid (TSP-d4), and 600 μL of deuterated chloroform containing 0.03% tetramethylsilane (TMS). […] Two-dimensional NMR spectra, namely, ^1H-^1H TOCSY, J-resolved and ^1H-^13C HSQC spectra, were also recorded for selected samples to aid metabolite identification. Signal assignment was based on matching 1D and 2D spectral information to reference spectra available in Chenomx 9.0 (Edmonton, AB, Canada), BBIOREFCODE-2–0–0 (Bruker Biospin, Rheinstetten, Germany) and HMDB.
(§1) To provide a quantitative measurement of metabolic variations, spectral integration and total area normalization of selected signals (vide Supplementary Table S1) were carried out in Amix-Viewer 3.9.15 (Bruker Biospin, Rheinstetten, Germany). For each metabolite, the percentage of variation (or fold change) in exposed samples was calculated relative to respective controls, along with the effect size (ES) and statistical significance (p-value). The variations with larger magnitude (|ES| > 0.8) were expressed in a heatmap.

Test [2] concerns SH-SY5Y human neuroblastoma cells. Kind of test: resazurin cell viability assay. Format: cell-based. The conditions noted are these: for IC50: Homo sapiens, SH-SY5Y, read-out: IC50 (cell viability). Here is the method:
Undifferentiated SH-SY5Y human neuroblastoma cells (ATCC® CRL-2266) were cultured in DMEM:F12 medium supplemented with 10% FBS and 1% antibiotic (100 IU/mLof penicillin and 100 μg/mL of streptomycin sulfate). Cells were grown in 75 cm^2 bottles and incubated at 37 °C under a humidified atmosphere with 5% CO2 for 48 h, until reaching semiconfluency. All experiments were performed on cells between passages 4 to 8.
To assess cell viability, the resazurin test was used. This assay evaluates the ability of viable cells to reduce resazurin (blue color) to a fluorescent, pink-colored compound, resorufin. Briefly, the cells were plated in a 96-well plate 24 h before treatment, at a density of 4 × 10^4 cells/mL. […] Each LA was solubilized in complete DMEM:F12 medium. Subsequently, the medium was removed, the wells were washed with 5 mM PBS and the cells were incubated with 10% resazurin for 4 h. At the end of this period, the absorbance was measured at 570 nm (λ1) and at 600 nm (λ2) (Multiskan™ FC Microplate Photometer, Thermofisher). The experiment was performed in triplicate and the differences between the two wavelengths (λ1–λ2) were calculated. The results were expressed in % of cell viability in relation to control and analyzed in GraphPad Prism® 6.0.
For orientation: Resazurin is reduced to fluorescent resorufin, in cell work by metabolically active cells.

Test [3] has as its system SH-SY5Y cells. Kind of test: 1H NMR metabolic profiling of cell lipid extracts. The test is classed as cell-based, human. The note with it: lipid extract, vs control. The protocol: After reaching semiconfluence, 10 mL of cells (1 × 10^6 cells/mL) were plated on 90 mm diameter culture dishes and incubated for 24 h. […] Afterward, the medium was collected and the dishes washed with cold PBS, immediately before the solvent extraction procedure described below. Unexposed cells were used as controls. Each assay comprised duplicates of each condition and three independent assays were performed, giving a total of 6 replicates per condition.
The culture medium was collected from each plate (including cell-free medium incubated under the same conditions) in conical tubes and centrifuged at 1000× g for 10 min. Furthermore, 300 µL of the supernatant were collected for protein precipitation, as described by Kostidis et al.. Briefly, 600 µL of 100% methanol (v/v) at −80 °C were added to the collected supernatant ([…]). The mixture was kept at −20 °C for 30 min and centrifuged at 13,000× g for 20 min. The supernatant was transferred to another tube and vacuum dried (SpeedVac, Eppendorf, Hamburg, Germany). For extracting cellular metabolites, a biphasic extraction protocol (methanol:chloroform:water; 1:1:0.7) was used as previously described. The resulting polar extracts were dried under vacuum in a Speedvac concentrator, and the lipophilic extracts were dried under a nitrogen flow. All extracts were stored at −80 °C prior to NMR analysis.
For NMR analysis, dried aqueous and lipid extracts were dissolved, respectively, in 600 μL of deuterated phosphate buffer (PBS 100 mM, pH 7.4) containing 0.1 mM 3-(trimethylsilyl) propionic acid (TSP-d4), and 600 μL of deuterated chloroform containing 0.03% tetramethylsilane (TMS). After transferring 550 μL of each sample to 5 mm NMR tubes, analysis was performed on a Bruker Avance III HD 500 NMR spectrometer (University of Aveiro, Portuguese NMR Network) operating at 500.13 MHz for ^1H observation, at 298 K. Standard 1D ^1H spectra (pulse programs ‘noesypr1d’ and ‘zg’ for aqueous and lipid samples, respectively) were recorded with 32 k points, 7002.80 Hz spectral width, a 2 s relaxation delay and 512 scans. […]. Two-dimensional NMR spectra, namely, ^1H-^1H TOCSY, J-resolved and ^1H-^13C HSQC spectra, were also recorded for selected samples to aid metabolite identification. Signal assignment was based on matching 1D and 2D spectral information to reference spectra available in Chenomx 9.0 (Edmonton, AB, Canada), BBIOREFCODE-2–0–0 (Bruker Biospin, Rheinstetten, Germany) and HMDB.
as §1, with “heatmap. Loadings profiles and heatmap figures were generated using the R software version 4.1.3 (R Core Team (2020). R: A language and environment for statistical computing. R Foundation for Statistical Computing, Vienna, Austria. URL http://www.R-project.org/ accessed 23 May 2022).” for “heatmap.”

SMILES strings stand for the structures. “Also recorded” adds a separate entry of the source. Structures can show the parent of a compound that is named as a salt. Where two headings read alike, the source gives them in different places.

The source of these data is article PMC9323911, “Comparative Metabolomics Study of the Impact of Articaine and Lidocaine on the Metabolism of SH-SY5Y Neuronal Cells” (Metabolites, 2022).

The IC50 is the concentration that gives 50% inhibition. `CCCNC(C)C(=O)Nc1c(C)csc1C(=O)OC` (stereo not shown) [ATC, Articaine hydrochloride]: the pyruvate consumption result with SH-SY5Y cells [1] (IC10, 24 h) was “increased significantly”; with SH-SY5Y cells [1] (IC50, 24 h), “no difference to controls”. In addition, in test [2] (24 h exposure), the “IC10 (concentration reducing cell viability by 10%)” value is 1.2 mM. Further, the IC50 in test [2] (20 min, 20 min exposure) was above 10 mM; in test [2] (1 h exposure), above 10 mM; in test [2] (4 h exposure) it was 5.4 ± 0.3 mM; in test [2] (24 h exposure), 3 ± 0.2 mM; in test [2] (shortest exposure durations (20 min and 1 h)) it was above 10 mM. Moreover, the cholesterol level result with SH-SY5Y cells [3] (IC50, 24 h) is given as “significant decrease”. Also, the cholesteryl esters level entry in the test with SH-SY5Y cells [3] (IC50, 24 h) was “prominent increase; also recorded: increased”. Moreover, in the test with SH-SY5Y cells [3] (IC50, 24 h), the phospholipids level result is on record as “decreases”. In addition, in the test on SH-SY5Y cells [3] (IC50, 24 h), the triglycerides level result is on record as “decreases”.

In the case of `CCN(CC)CC(=O)Nc1c(C)cccc1C` [LDC, lidocaine hydrochloride], the pyruvate consumption result was “increased significantly” in the test on SH-SY5Y cells [1] (IC10, 24 h) and “no difference to controls” with SH-SY5Y cells [1] (IC50, 24 h). Also, the “IC10 (concentration reducing cell viability by 10%)” value in test [2] (24 h exposure) was 1.2 mM. Besides, the IC50 in test [2] (20 min) was 7.3 ± 0.3 mM; in test [2] (1 h), 7.4 ± 0.3 mM; in test [2] (4 h), 5.7 ± 0.2 mM; in test [2] (24 h), 3.6 mM; in test [2], around 7 mM. Besides, the “phosphatidylcholine (PtC) level” value in the test on SH-SY5Y cells [3] (24 h) is “decrease”. The triglycerides level result with SH-SY5Y cells [3] (IC50, 24 h) is given as “accumulated; also recorded: increased”.
